{"source": "patent US20150320787A1", "about": "“COBALAMIN COMPOSITIONS AND METHODS FOR TREATING OR PREVENTING MUCOSITIS” (OraHealth Corp., priority 2006, published 2015)", "key": {"[1]": {"assay": "Placebo-controlled test of adhering dissolving discs, one each day, in subjects with minor RAU at least monthly", "assay_type": "in vivo, human", "details": "active group, seven subjects, discs with 500 mcg methylcobalamin, 30 discs, placebo discs with red food coloring", "source_text": "(§1) Troches in the form of dissolving muco-adhesive tablets may be made by pressing powders including mucoadhesive hydrocolloids. A preferred form of such an adhering troche may be made by mixing dry powders consisting of 80 percent acacia gum (gum arabic) for adhesive and 20 percent xylitol for flavor, then adding up to 1 percent carboxymethylcellulose (CMC), to enhance mouth feel, moderate adhesiveness of the acacia gum, and slow dissolution, and about 500 micrograms of cobalamin. The tablet may be pressed into the shape shown in FIG. 3 for good adhesion to a tooth. Such a tablet is suitably about 8 mm in diameter and about 85 milligrams in weight.\n(§2) The typical instruction to users is to stick a troche in their mouths, just before they go to sleep, between teeth and cheek, placing it on the tongue side of the teeth if the patient suffers particularly from ulcers on or under the tongue and otherwise placing it on the cheek side. In greater detail, the instructions state: “Use after brushing teeth, at least one disc per day, and allow to dissolve for 30 minutes with nothing else in your mouth. In an area of your mouth where you experience sores, use your tongue to hold the dimpled side of the disc against a tooth until it adheres. The disc will slowly dissolve over 10 to 40 minutes, releasing cobalamin which is absorbed directly into the mouth lining tissues. […]"}, "[2]": {"assay": "Non-blinded test of active adhering dissolving discs in additional subjects", "assay_type": "in vivo, human", "source_text": "as §1, §2"}}, "data": [{"smiles": "C/C1=C2/[N-][C@H]([C@H](CC(N)=O)[C@@]2(C)CCC(=O)NC[C@@H](C)OP(=O)([O-])O[C@H]2[C@@H](O)[C@@H](n3cnc4cc(C)c(C)cc43)O[C@@H]2CO)[C@]2(C)N=C(/C(C)=C3N=C(/C=C4N=C1[C@@H](CCC(N)=O)C\\4(C)C)[C@@H](CCC(N)=O)[C@]\\3(C)CC(N)=O)[C@@H](CCC(N)=O)[C@]2(C)CC(N)=O.[CH3-].[Co+3]", "note": "[methylcobalamin]", "values": [{"measurement": "subjects who reported a benefit (reduced frequency of minor RAU, reduced duration of ulcers, or reduced peak pain levels)", "setting": "[1]", "value": 100, "unit": "%"}, {"measurement": "time after stopping the discs until an ulcer with a pain level like before starting (mean)", "setting": "[2]; five subjects who reported a benefit and stopped using the discs", "value": 4.8, "unit": "days"}, {"measurement": "subjects who reported a benefit of using the discs", "setting": "[2]; twenty-five additional non-blinded subjects, active discs with 500 mcg methylcobalamin", "value": 96, "unit": "%"}]}]}
